Reference: US5554644A, “Tachykinin (NK2) antagonists” (Warner-Lambert Company, priority 1994, dated 1996)

Columns and labels:
NK1 receptor = conditions: cited from earlier work; for antagonists at the NK1 receptor: nonpeptide antagonists
NK2 receptor = molecular target: T1, NK2 receptor (Mesocricetus auratus, UniProt P51144); test: NK2 receptor binding: binding of [^125 I]-iodohistidyl neurokinin A (0.1 nM) to hamster urinary bladder membranes
T1 construct: to hamster urinary bladder membranes; from tissue; host or cells: hamster urinary bladder membranes
T1 sequence (P51144 1-384): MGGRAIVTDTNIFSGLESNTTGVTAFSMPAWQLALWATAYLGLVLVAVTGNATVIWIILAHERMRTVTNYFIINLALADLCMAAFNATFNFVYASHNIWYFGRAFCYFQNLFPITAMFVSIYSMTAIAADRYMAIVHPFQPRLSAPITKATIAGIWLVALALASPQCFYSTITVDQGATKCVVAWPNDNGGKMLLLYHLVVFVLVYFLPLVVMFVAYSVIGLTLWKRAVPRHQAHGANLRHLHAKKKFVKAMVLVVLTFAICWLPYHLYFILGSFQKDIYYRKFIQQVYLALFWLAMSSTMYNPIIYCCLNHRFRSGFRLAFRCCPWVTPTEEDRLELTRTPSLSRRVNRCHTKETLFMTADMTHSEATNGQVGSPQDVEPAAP
Protocol: Some of the compounds of the invention were evaluated in tachykinin binding assays.
For the NK2 receptor-measurement of the binding of [^125 I]-iodohistidyl neurokinin A (0.1 nM) to hamster urinary bladder membranes. See Buck and Shatzer, Life Sci., 42:2701 (1988).

NK2 receptors = conditions: cited from earlier work

Compound | IC50 (NK2 receptor) [nM] | also measured
substance-P |  | affinity for NK1 receptors (NK1 receptor): highest affinity for NK1 receptors
COc1ccccc1CC(=N)N1C[C@@H]2C(=O)CCC(c3ccccc3)(c3ccccc3)[C@@H]2C1 [RP 67580] |  | antagonists at the NK1 receptor (NK1 receptor): antagonists at the NK1 receptor
CC(=O)NC1(c2ccccc2)CCN(CC[C@H](CN(C)C(=O)c2ccccc2)c2ccc(Cl)c(Cl)c2)CC1 [SR 48969] |  | affinity and selectivity for NK2 receptors (NK2 receptors): high affinity and selectivity for NK2 receptors
COc1ccccc1CN[C@H]1C2CCN(CC2)[C@H]1C(c1ccccc1)c1ccccc1 [CP-96,345] |  | antagonists at the NK1 receptor (NK1 receptor): antagonists at the NK1 receptor

Further lines, with some results ahead:

IC50 (NK2 receptor) [nM] | Compound | also measured
150 | COc1cccc(COC(=O)N[C@@H](Cc2c[nH]c3ccccc23)C(=O)N[C@@](C)(Cc2ccccc2)C(=O)OCCO)c1OC [Compound IV, L-Phenylalanine, N-[N-[[(2,3-dimethoxyphenyl)methoxy]carbonyl]L-tryptophyl]-α-methyl- , 2-hydroxyethyl ester] | 
250 | COc1cccc(COC(=O)N[C@@H](Cc2c[nH]c3ccccc23)C(=O)N[C@](C)(COCCO)Cc2ccccc2)c1OC [Compound XII, Carbamic acid, [2-[[1-[(2-hydroxyethoxy)methyl]-1-methyl-2-phenylethyl]amino]-1-(1H-indol-3-ylmethyl)-2-oxoethyl]-, (2,3-dimethoxyphenyl)methyl ester, [S-(R*, R*)]-.] | 
360 | COc1cccc(COC(=O)NC(Cc2c[nH]c3ccccc23)C(=O)NC(C)(Cc2ccccc2)C(O)CCCO)c1OC (single isomer, unassigned) [Compound XX, Carbamic acid, [2-[[2,5-dihydroxy-1-methyl-1-(phenylmethyl)pentyl]amino]-1-(1H-indol-3-ylmethyl)-2-oxoethyl]-, (2,3-dimethoxyphenyl)methyl ester] | 
330 | COc1cccc(COC(=O)NC(Cc2c[nH]c3ccccc23)C(=O)NC(C)(Cc2ccccc2)C(O)CCCO)c1OC (single isomer, unassigned) [Compound XXI, Carbamic acid, [2-[[2,5-dihydroxy-1-methyl-1-(phenylmethyl)pentyl]amino]-1-(1H-indol-3-ylmethyl)-2-oxoethyl]-, (2,3-dimethoxyphenyl)methyl ester] | 
> 10000 | COc1cccc(COC(=O)N[C@@H](Cc2c[nH]c3ccccc23)C(=O)N[C@@](C)(Cc2ccccc2)C(=O)N(C)CCO)c1OC [Compound VII, L-Phenylalaninamide, N-[[(2,3-dimethoxyphenyl)methoxy]-carbonyl]-L-tryptophyl-N-(2-hydroxyethyl)-N,α-dimethyl] | 
22 | COc1cccc(COC(=O)N[C@@H](Cc2c[nH]c3ccccc23)C(=O)N[C@@](C)(Cc2ccccc2)C(=O)CCCO)c1OC [XXVI, Carbamic acid, [2-[[5-hydroxy-1-methyl-2-oxo-1-(phenylmethyl)pentyl]amino]-1-(1H-indol-3-ylmethyl)-2-oxoethyl]-, (2,3-dimethoxyphenyl)methyl ester] | 
